Reference: ChEMBL document CHEMBL1201862, “PubChem BioAssay data set” (2004)
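1) Cells in 96-well plates. 2) Compound, 48 h, 5 concentrations. 3) Linear interpolation between surrounding doses. 4) Unreached endpoint = highest concentration. GI50 is the concentration that inhibits growth by half.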 Calls of active or inactive are those of the source. Rule as the data show it: active = GI50 up to about 1.1 µM and inactive = higher.

Experiments:
Test in all cases: NCI-60 cell line screen, 48 h
[1] = tested on: Malme-3M
[2] = tested on: SK-MEL-2
[3] = tested on: SF-539
[4] = tested on: HCC 2998
[5] = tested on: A549
[6] = tested on: HCT-15
[7] = tested on: CCRF-CEM
[8] = tested on: HL-60
[9] = tested on: OVCAR-8
[10] = tested on: SK-MEL-28
[11] = tested on: DLD-1
[12] = tested on: SW-620
[13] = tested on: SK-OV-3
[14] = tested on: HCT-116
[15] = tested on: EKVX
[16] = tested on: RPMI-8226
[17] = tested on: MCF7
[18] = tested on: BT-549
[19] = tested on: MDA-MB-435
[20] = tested on: NCI/ADR-RES

Row | SMILES | GI50 [1] | GI50 [2] | GI50 [3] | GI50 [4] | GI50 [5] | GI50 [6] [µM] | GI50 [7] | GI50 [8] | GI50 [9] | GI50 [10] | GI50 [11] | GI50 [12] | GI50 [13] | GI50 [14] | GI50 [15] | GI50 [16] | GI50 [17] | GI50 [18] | GI50 [19] | GI50 [20]
1 | CCOC(=O)Cn1c(=O)[nH]c(=O)c2[nH]cnc21 | > 100 µM (inactive) | > 100 µM (inactive) | > 100 µM (inactive) | > 100 µM (inactive) | > 100 µM (inactive) | > 100 | > 100 µM (inactive) | > 100 µM (inactive) | > 100 µM (inactive) | > 100 µM (inactive) | > 100 µM (inactive) | > 100 µM (inactive) | > 100 µM (inactive) | > 100 µM (inactive) | > 100 µM (inactive) | – | – | – | – | –
2 | Cc1cccc(-c2nc3c(C(=O)NCCN(C)C)cccc3[nH]2)c1 | – | 1.86 µM (inactive) | 0.724 µM (active) | 1 µM (active) | 1.1 µM (active) | 0.414 | 1.02 µM (active) | 2.29 µM (inactive) | 0.708 µM (active) | 2.04 µM (inactive) | 0.407 µM (active) | 0.352 µM (active) | 1.49 µM (inactive) | 0.329 µM (active) | 1.46 µM (inactive) | 3.12 µM (inactive) | – | – | – | –
3 | N#C/C(=C1\OC(=O)C(c2ccc(Br)cc2)=C1O)c1ccc(Br)cc1 | 16.9 µM (inactive) | – | 16.1 µM (inactive) | 15.5 µM (inactive) | 18 µM (inactive) | – | 11.1 µM (inactive) | 11.6 µM (inactive) | 12.1 µM (inactive) | 17.2 µM (inactive) | 15.8 µM (inactive) | 14.3 µM (inactive) | 18.5 µM (inactive) | 17.3 µM (inactive) | 17.5 µM (inactive) | 15.1 µM (inactive) | – | – | – | –
4 | O=c1[nH]c(=O)n(C2OC(CO)C(N(O)Cc3ccc(F)cc3)C2O)cc1Br (stereo not drawn) | – | – | > 100 µM (inactive) | > 100 µM (inactive) | > 100 µM (inactive) | – | > 100 µM (inactive) | > 100 µM (inactive) | > 100 µM (inactive) | > 100 µM (inactive) | > 100 µM (inactive) | > 100 µM (inactive) | > 100 µM (inactive) | > 100 µM (inactive) | > 100 µM (inactive) | > 100 µM (inactive) | – | – | – | –
5 | CN1NC(c2ccccc2)=C(C#N)C(=O)CC1c1ccccc1Cl (stereo not drawn) | > 100 µM (inactive) | > 100 µM (inactive) | – | > 100 µM (inactive) | > 100 µM (inactive) | 63.4 | > 100 µM (inactive) | > 100 µM (inactive) | – | > 100 µM (inactive) | 61.4 µM (inactive) | > 100 µM (inactive) | > 100 µM (inactive) | > 100 µM (inactive) | – | > 100 µM (inactive) | – | – | – | –
6 | Cc1ccc2sc3cc(=O)cc(C)c-3nc2c1 | – | > 100 µM (inactive) | 37.9 µM (inactive) | 50.4 µM (inactive) | 36.7 µM (inactive) | 40.2 | 17.8 µM (inactive) | 13.8 µM (inactive) | 37.9 µM (inactive) | > 100 µM (inactive) | 76 µM (inactive) | > 100 µM (inactive) | > 100 µM (inactive) | 80.2 µM (inactive) | 38.6 µM (inactive) | – | – | – | – | –
7 | COC(=O)CC(=O)OC1C[C@@H]2CCC3C(C)(C)CCC[C@]3(C)C23CC[C@@]1(C)C3 (stereo partly drawn) | 17.9 µM (inactive) | – | 19.6 µM (inactive) | 19.8 µM (inactive) | 24.5 µM (inactive) | 19.9 | > 100 µM (inactive) | > 100 µM (inactive) | 19.5 µM (inactive) | 19.8 µM (inactive) | 18.8 µM (inactive) | 18.2 µM (inactive) | 24.5 µM (inactive) | 17.3 µM (inactive) | – | 45.9 µM (inactive) | – | – | – | –
8 | c1ccc(P(=C2c3ccccc3-c3ccccc32)(c2ccccc2)c2ccccc2)cc1 | 3.08 µM (inactive) | 5.35 µM (inactive) | 11.5 µM (inactive) | 3.63 µM (inactive) | 7 µM (inactive) | 5.02 | 2.51 µM (inactive) | 1.8 µM (inactive) | 3.04 µM (inactive) | 6.5 µM (inactive) | 4.32 µM (inactive) | 3.37 µM (inactive) | 20.7 µM (inactive) | – | 5.58 µM (inactive) | – | – | – | – | –
9 | NC1CC2NC3CCCCC3NC2CC1N (stereo not drawn) | 46.6 µM (inactive) | 50.1 µM (inactive) | 80.4 µM (inactive) | 62.5 µM (inactive) | 58.3 µM (inactive) | 21.7 | 22.5 µM (inactive) | 26.7 µM (inactive) | 27.4 µM (inactive) | 74.5 µM (inactive) | – | 24.1 µM (inactive) | 28.4 µM (inactive) | 24.1 µM (inactive) | 25.4 µM (inactive) | 37.5 µM (inactive) | 0.776 µM (active) | > 100 µM (inactive) | 36.1 µM (inactive) | 30.1 µM (inactive)
10 | O=Cc1ccc(-c2nccc3c2[nH]c2ccccc23)o1 | > 100 µM (inactive) | > 95.5 µM (inactive) | > 100 µM (inactive) | > 91.6 µM (inactive) | 73.1 µM (inactive) | > 100 | > 100 µM (inactive) | 74.8 µM (inactive) | > 87.1 µM (inactive) | > 100 µM (inactive) | – | > 100 µM (inactive) | 97.7 µM (inactive) | 55.7 µM (inactive) | > 100 µM (inactive) | > 81.8 µM (inactive) | 55 µM (inactive) | > 100 µM (inactive) | > 100 µM (inactive) | > 100 µM (inactive)
11 | CC(=O)NC1C(OCc2ccccc2)OC(CO)C(O)C1OC(C)C(=O)NC(C)C(=O)NC(CCC(=O)NCCCCNc1c2ccccc2nc2cccc([N+](=O)[O-])c12)C(N)=O (stereo not drawn) | 0.0348 µM (active) | 0.0944 µM (active) | 0.0512 µM (active) | 0.013 µM (active) | 0.0404 µM (active) | 0.00893 | 0.114 µM (active) | 0.027 µM (active) | 0.0228 µM (active) | 0.163 µM (active) | – | 0.00741 µM (active) | 0.22 µM (active) | 0.00748 µM (active) | 0.0625 µM (active) | 0.0118 µM (active) | 0.00995 µM (active) | 0.196 µM (active) | 0.0325 µM (active) | 0.123 µM (active)
12 | Cn1c(=O)c2c(ncn2CCCCOc2ccc3c(c2)[n+]([O-])nc(N)[n+]3[O-])n(C)c1=O | 21.1 µM (inactive) | 28.9 µM (inactive) | 21.1 µM (inactive) | 19.2 µM (inactive) | 65.6 µM (inactive) | 65.2 | 32.7 µM (inactive) | 34.9 µM (inactive) | 20 µM (inactive) | 34.7 µM (inactive) | – | 39.6 µM (inactive) | 30.3 µM (inactive) | 28.1 µM (inactive) | 28.7 µM (inactive) | 30.5 µM (inactive) | 11.9 µM (inactive) | 12.9 µM (inactive) | 11.8 µM (inactive) | > 100 µM (inactive)
13 | Nc1c(-c2cn(Cc3ccccc3)c3ccccc23)[n+]([O-])c2ccccc2[n+]1[O-] | 29.7 µM (inactive) | 23.1 µM (inactive) | – | 35.8 µM (inactive) | 30.8 µM (inactive) | 27.2 | 27.1 µM (inactive) | 9.46 µM (inactive) | 45.4 µM (inactive) | 25.4 µM (inactive) | 32.7 µM (inactive) | 51.4 µM (inactive) | 24.8 µM (inactive) | – | 32.6 µM (inactive) | 24.6 µM (inactive) | – | – | – | –
14 | O=S(=O)(O)c1ccc(/N=N/c2ccc(/N=N/c3c(O)ccc4ccc(S(=O)(=O)O)cc34)cc2)cc1 | > 100 µM (inactive) | > 100 µM (inactive) | > 100 µM (inactive) | > 100 µM (inactive) | > 100 µM (inactive) | > 100 | > 100 µM (inactive) | > 100 µM (inactive) | > 100 µM (inactive) | > 100 µM (inactive) | – | > 100 µM (inactive) | > 100 µM (inactive) | > 100 µM (inactive) | > 100 µM (inactive) | > 100 µM (inactive) | > 100 µM (inactive) | > 100 µM (inactive) | > 100 µM (inactive) | > 100 µM (inactive)
15 | CN(C)CCn1c(=O)c2ccc(NCCNCCO)c3c(=O)c4ccccc4n(c1=O)c23 | 0.336 µM (active) | 0.423 µM (active) | 0.0428 µM (active) | < 0.0329 µM (active) | < 0.0121 µM (active) | 0.279 | < 0.01 µM (active) | < 0.01 µM (active) | 0.0632 µM (active) | 0.815 µM (active) | – | 0.027 µM (active) | 0.164 µM (active) | 0.0492 µM (active) | 0.231 µM (active) | < 0.0394 µM (active) | < 0.01 µM (active) | 1.21 µM (inactive) | 0.228 µM (active) | 1.72 µM (inactive)
16 | CC(=O)OCC1OC(SC2=NC(=O)/C(=C/c3ccccc3)S2)C(OC(C)=O)C(OC(C)=O)C1OC(C)=O (stereo not drawn) | 23.7 µM (inactive) | 80.4 µM (inactive) | 23 µM (inactive) | 28.8 µM (inactive) | 44 µM (inactive) | 59 | 28.4 µM (inactive) | 14.5 µM (inactive) | 14.6 µM (inactive) | 30.8 µM (inactive) | – | 23.8 µM (inactive) | 45.7 µM (inactive) | 29.4 µM (inactive) | 21.2 µM (inactive) | 24.4 µM (inactive) | 18.9 µM (inactive) | 28.4 µM (inactive) | 17 µM (inactive) | 30.4 µM (inactive)
17 | CNC(=O)CCCNC(=O)CCCC(=O)N(C)C | > 100 µM (inactive) | > 100 µM (inactive) | > 100 µM (inactive) | > 100 µM (inactive) | > 100 µM (inactive) | > 100 | > 100 µM (inactive) | > 100 µM (inactive) | > 100 µM (inactive) | > 100 µM (inactive) | – | 45.5 µM (inactive) | > 100 µM (inactive) | > 100 µM (inactive) | > 100 µM (inactive) | > 100 µM (inactive) | > 100 µM (inactive) | > 100 µM (inactive) | > 100 µM (inactive) | > 100 µM (inactive)
